Measured values reported in US20250302799A1, “PHARMACEUTICAL COMPOSITION CONTAINING FRAXETIN FOR PREVENTION OR TREATMENT OF ENDOMETRIOSIS” (Research & Business Foundation Sungkyunkwan University, priority 2024, published 2025).

Tests used:
[1] = system: End1/E6E7 cells; assay: Mitochondrial respiration (XF Cell Mitostress kit); type: cell-based, human
Protocol: (§1) To confirm the effects of fraxetin on mitochondrial respiration in endometrial cells, the inventors used an XF Cell Mitostress kit.
(§2) In brief, endometrial cells were seeded in 24-well plates and cultured at 37° C. in a 5% CO2 incubator for 16 hours, followed by treatment with […]. Subsequently, various mitochondrial respiration parameters were measured by sequential treatment with oligomycin, FCCP, rotenone, and antimycin A in the two cell lines.

[2] = system: VK2/E6E7 cells; assay: Mitochondrial respiration (XF Cell Mitostress kit); type: cell-based, human
Protocol: as §1, §2

COc1cc2ccc(=O)oc2c(O)c1O [fraxetin]
ATP production [1]: significantly decreased
basal respiration [1]: significantly decreased
maximal respiration [1]: significantly decreased
reserve respiratory capacity compared to control [1]: halved
ATP production [2]: decreased
basal respiration [2]: decreased
